Assay results published in article PMC6150007 (Molecules : A Journal of Synthetic Chemistry and Natural …, 2017).
In brackets after ≈: the same amount, converted by molar mass. Read-outs that look alike come from different tables or passages of the source. Blank lines part the entries; values can stand above or below the compound they belong to.

Legend:
[1] = Shake-flask logD determination (n-octanol/buffer); conditions: n-octanol/potassium phosphate buffer 100 mM
Protocol: (§5) n-Octanol (analytical reagent from Sigma-Aldrich) and the appropriate buffer were mutually saturated in a separatory funnel. Potassium phosphate buffer (100 mM) at pH 6.4, 7.4 and 7.8 served as the aqueous buffer phases. […] The vessels were shaken by hand for 5 min and centrifuged at 4000× g for 10 min. […] The logD value at a given pH is equal to the logarithm of the octanol/buffer partition coefficients (D). […] LogD values are given as mean ± standard deviation of triplicate determinations. Using the same protocol as above, the logD values at pH 6.4, 7.4 and 7.8 for lazabemide were also determined.

[2] = test system: HeLa cells; assay: MTT cell viability assay; assay type: cell-based, human; conditions: 100 µM, 24 h
Description: (§1) For this purpose, the MTT cell viability assay was used. The MTT assay is a standard cell viability assay, measuring mitochondrial activity in live (metabolically viable) cells. Metabolically active mitochondria in viable cells have the ability to reduce MTT to coloured formazan crystals that can be quantitated spectrophotometrically. The presence of a toxic agent will reduce cell viability and thus limit the reduction of MTT to the formazan product. For this study, HeLa cells were selected. This selection was based on the high growth rate of HeLa cells and on the observation that these cells are frequently used to measure cell viability in the presence of toxic agents.
(§2) HeLa cells were maintained in 250 cm^2 flasks in 30 mL Dulbecco’s Modified Eagle Medium (DMEM) containing 10% fetal bovine serum, 1% penicillin (10,000 units/mL)/streptomycin (10 mg/mL) and 0.1% fungizone (250 µg/mL). The cells were incubated at 37 °C in an atmosphere of 10% CO2. Once confluent, the cells were seeded at 500,000 cells/well in 24-well plates and incubated for 24 h. A volume of 3 mL trypsin/EDTA (0.25%/0.02%) was used to facilitate cell detachment and the counting of cells was done with a haemocytometer. The wells were subsequently rinsed with 0.5 mL DMEM containing no fetal bovine serum. A volume of 0.99 mL DMEM (containing no fetal bovine serum) was subsequently added to each well followed by 10 µL of the test drug. Stock solutions of the test drugs were prepared in deionised water and sterilised via a 0.22 µm syringe filter. In each 24-well plate, wells were reserved as positive controls (100% cell death via lyses with 0.3% formic acid) and negative controls (0% cell death as a result of no treatment). The well-plates were incubated for a further 24 h after which the culture medium was aspirated from the cells. The wells were washed twice with 0.5 mL/well phosphate-buffered saline (PBS) and 200 µL of 0.05% MTT reagent (3-(4,5-dimethylthiazol-2-yl)-2,5-diphenyltetrazolium bromide) in PBS was added to each well. The well-plates were incubated at 37 °C for 2 h in the dark, the MTT reagent was aspirated from the wells and 250 µL isopropanol was added to each well. The well-plates were then incubated at room temperature for 5 min to dissolve the purple formazan crystals, whereafter 100 µL of the isopropanol phase was transferred to a 96-well plate. The absorbance of each isopropanol phase was measured spectrophotometrically at 560 nm.

[3] = MTT cell viability assay; assay type: cell-based, human; conditions: human, HeLa cells, read-out: percentage of viable cells remaining
Description: as §1, §2

[4] = Solubility in water and potassium phosphate buffer; assay type: physicochemical; conditions: thermodynamic from solid, 37 °C
Protocol: This yielded a theoretical concentration of 6.0 mg/mL. The tubes were agitated for 24 h in a water bath at 37 °C and were subsequently centrifuged at 16,000× g for 10 min. The samples were filtered through a 0.22 µm syringe filter and diluted 150-fold into water or potassium phosphate buffer (100 mM, pH 7.4). The absorbances of the resulting solutions were recorded at a wavelength of maximal absorbance of 276 nm.

[5] = test system: striatal monoamines and metabolites; conditions: for concentration reached in the brain: mouse, in vivo
Protocol: The delivery of dopamine by the prodrug was thus indirectly assessed by measuring dopamine levels in the striatal tissue of mice following treatment with the prodrug. For this purpose, the measurement of dopamine metabolites and other monoamine neurotransmitters and their metabolites was also included. […] Another four groups (n = 3 mice/group) were treated in the same manner by intraperitoneal injection. The animals were sacrificed 60 min after treatment, the striata were dissected and the concentrations of dopamine, 3,4-dihydroxyphenylacetic acid (DOPAC), homovanillic acid (HVA), noradrenaline, serotonin and 5-hydroxyindoleacetic acid (HIAA) were measured [40].
Male C57BL/6 mice were weighed and allocated into 4 groups of 3 mice each. […] A second set of 4 groups (n = 3) were treated in the same manner by intraperitoneal injection. All solutions were prepared in sterile saline and administered at volumes of 0.1 mL for oral gavage and 0.2 mL for intraperitoneal injection. The animals were euthanised 60 min after treatment and the striata were dissected and stored at −80 °C until the day of the experiment. The concentrations of dopamine, 3,4-dihydroxyphenylacetic acid (DOPAC), homovanillic acid (HVA), noradrenaline, serotonin and 5-hydroxyindoleacetic acid (5-HIAA) were determined according to the published protocol, and are reported as mean ± standard deviation of each group [40]. Prism version 5 (GraphPad Software, San Diego, CA, USA) was used for the statistical analyses and for the preparation of graphical presentations. Data were analysed by one-way analysis of variance (ANOVA) across all groups, and were subsequently subjected to the Dunnett’s post-hoc test to determine statistical differences between the means. A p-value of <0.05 indicates a statistically significant difference.

[6] = Ionisation constant (pKa) by potentiometric titration; assay type: physicochemical
Protocol: The prodrug was titrated in 0.1 mL increments and the pH was recorded after each addition. A total of 1 mL KOH was added to fully neutralise the primary amine group of the prodrug. The results were subsequently tabulated according to the method described in literature, and the pKa value was calculated.

[7] = Tissue stability, rat liver homogenate; assay type: in vitro ADME; conditions: 37 °C
Protocol: (§3) The effluent was monitored at 276 nm. […] The effluent was monitored at 280 nm.
(§4) Plasma was collected in 0.5 mL MiniCollect® heparin plasma tubes (Greiner Bio-One, Kremsmünster, Austria) and centrifuged at 5500 rpm. Liver and brain tissue were collected, placed on ice and rinsed with 0.25 M sucrose dissolved in water. Sucrose solution was added to the tissue at a ratio 1:3 (w/v), the tissues were cut into small pieces using scissors and homogenised by 2 passes (60 s each) using a Potter–Elvehjem homogeniser (1200 rev/min, Potter–Elvehjem, Kennesaw, GA, USA). Care was taken to cool the homogeniser in ice during this procedure. […] The stock solution was immediately diluted to approximately 200 µM into plasma or tissue homogenate (preheated to 37 °C) and the resulting mixtures were analysed by the HPLC method described above. For this purpose, 100 µL of the spiked plasma or tissue homogenate was added to 300 µL acetonitrile (containing formic acid 1%) in a Phree tube. The tube was vortexed for 2 min and filtered under vacuum (9–10 mmHg). The collected solvent was evaporated under a stream of air, and the residue was redissolved in 100 µL methanol. A volume of 300 µL water was added and 20 µL of the resulting solution was analysed by the HPLC system. […] The concentration of lazabemide was also determined.

[8] = in vitro; conditions: PAMPA
Protocol: (§6) The HPLC system consisted of an Agilent 1200 series HPLC system with a binary gradient pump, autosampler and vacuum degasser coupled to an Agilent 1200 series variable-wavelength detector (Santa Clara, CA, USA). The analyses were carried out with Venusil XBP C18 column (4.60 mm × 150 mm, 5 μm, Bonna-Agela Technologies, Wilmington, DE, USA). […] The effluent was monitored at 276 nm. […] The effluent was monitored at 280 nm. A volume of 20 µL of the samples was injected into the HPLC system.
(§7) The precoated parallel artificial membrane permeability assay (PAMPA) plate system was obtained from BD Biosciences. Prior to use, the pre-coated PAMPA plates were warmed to room temperature for at least 30 min. Once warmed to room temperature, the plate system was used within 24 h. A volume of 300 µL of the test compound solution in potassium phosphate buffer (100 mM, pH 6.4, 7.4 and 7.8) or in sodium acetate buffer (50 mM, pH 3.7, 4.7 and 5.7) was added per well in the receiver/donor plate (bottom). The final concentration of the test compounds was 200 µM in each well. A volume of 200 µL of potassium phosphate buffer (100 mM, pH 6.4, 7.4 and 7.8) or sodium acetate buffer (50 mM, pH 3.7, 4.7 and 5.7) was then added per well to the filter/acceptor plate (top). The filter plate was placed on the receiver plate by slowly lowering the precoated PAMPA plate until it was seated on the receiver plate. The assembly was incubated at room temperature for 5 h. The precoated PAMPA plate and the receiver plate were separated. The compound concentrations were determined using the HPLC system described above. The permeability values are given as mean ± standard deviation of triplicate determinations [38].

[9] = Chemical stability in aqueous buffer (HPLC); assay type: physicochemical; conditions: 50 µM, room temperature
Protocol: as §3
The stock solution was immediately diluted to 50 µM and the resulting solution was analysed by the HPLC method described above. The first injection served as reference point, after which the same solution was again injected at 1 h, 3 h, 6 h, 9 h and 11 h. During this time, the test solution remained at room temperature in the autosampler tray. The stabilities of the prodrug in the selected buffer phases are reported as the percentage mean ± standard deviation of the first injection, which served as reference point.

[10] = Plasma stability, rat plasma; assay type: in vitro ADME; conditions: 37 °C, approx. 200 µM spiked
Protocol: as §3, §4

[11] = Plasma stability, human plasma; assay type: in vitro ADME; conditions: 37 °C, approx. 200 µM spiked
Protocol: as §3, §4

[12] = physchem
Protocol: as §5

[13] = test system: brain MAO-B; conditions: cited from earlier work
[14] = PAMPA, 5 h, 200 µM
Protocol: as §6, §7

[15] = parameters: method as in PMID 19930170; conditions: mice; oral administration of L-dopa and carbidopa; cited from earlier work
[16] = parameters: method as in PMID 20646792; conditions: after oral administration of L-dopa prodrugs to rats; cited from earlier work
[17] = cited from earlier work

logD ([1]; n-octanol/potassium phosphate buffer, pH 7.4, LogD, pH 7.4): 0.199 ± 0.002
logD ([1]; n-octanol/potassium phosphate buffer, pH 7.8, LogD, pH 7.8): 0.319 ± 0.003
logD ([1]; pH 6.4): < 0
logD ([1]; pH 6.4, listed as Prodrug): –4.58 ± 0.002
solubility at 24 h ([4]; aqueous buffer, potassium phosphate buffer pH 7.4, 6000 μg/mL theoretical, 24 h, read-out: Solubility, Amount Measured): 6.14 ± 0.73 mg/mL (≈ 16.2 mM)
solubility at 24 h ([4]; water, 6000 μg/mL theoretical, 24 h, read-out: Solubility, Amount Measured): 6.28 ± 0.747 mg/mL (≈ 16.6 mM)
solubility at 24 h ([4]; water and potassium phosphate buffer, aqueous buffer, water and buffer pH 7.4, read-out: minimum solubility): ≥ 6 mg/mL
concentration reached in the brain [5]: too low to be reliably detected
pKa ([6]; amine group, titration with KOH in water): 7.25 ± 0.16
fraction existing as neutral uncharged species ([6]; pH 5.5): 1–2%
fraction existing as neutral uncharged species ([6]; pH 7.4): approximately 59%
half-life at 200 µM ([7]; approximate, read-out: t½): ~1 h
prodrug remaining ([7]; 4 h incubation): 37%
Papp at 5 h, 200 µM ([8]; pH 3.7): 0.0955 nm/s
Papp at 5 h, 200 µM ([8]; pH 4.7): 0.155 nm/s
Papp at 5 h, 200 µM ([8]; pH 5.7): 0.195 nm/s
Papp at 5 h, 200 µM ([8]; pH 6.4): 0.195 nm/s
Papp at 5 h, 200 µM ([8]; pH 7.4): 0.295 nm/s
Papp at 5 h, 200 µM ([8]; pH 7.8): 0.468 nm/s
chemical stability in aqueous buffer ([9]; pH 3.7–7.4, up to 11 h): stable
prodrug concentration remaining ([9]; pH 7.8, 11 h, relative to first injection): 90.3%
prodrug concentration remaining ([10]; 17 h): 70.5 µM
stability in plasma ([10]; up to 8 h): relatively stable
prodrug concentration remaining ([11]; 17 h): 64 to 68 µM
stability in plasma ([11]; up to 8 h): stable
Structure (SMILES): N[C@@H](Cc1ccc(O)c(O)c1)C(=O)NCCNC(=O)c1ccc(Cl)cn1 [L-dopa–lazabemide prodrug]
percentage of viable cells remaining [2]: 34.9 ± 7.94%
viability at 24 h, 1 µM [3]: 112 ± 12%
viability at 24 h, 10 µM [3]: 52.1 ± 14%
viability at 24 h, 100 µM [3]: 35%
striatal DOPAC levels ([5]; 63.5 µmol/kg intraperitoneal, 60 min, vs saline): significant reduction
striatal serotonin and 5-HIAA levels ([5]; 63.5 µmol/kg oral gavage or ip, 60 min): not altered
striatal dopamine levels ([5]; 63.5 µmol/kg oral gavage or ip, 60 min, vs saline): does not enhance

logD ([12]; pH 6.4, LogD): -1.18
logD ([12]; pH 7.4, LogD): -0.68
logD ([12]; pH 7.8, LogD): -0.63
concentration reached in the brain [5]: too low to be reliably detected
Papp at 5 h, 200 µM ([8]; pH 3.7): 0.427 nm/s
Papp at 5 h, 200 µM ([8]; pH 4.7): 0.871 nm/s
Papp at 5 h, 200 µM ([8]; pH 5.7): 1.48 nm/s
Papp at 5 h, 200 µM ([8]; pH 6.4): 3.55 nm/s
Papp at 5 h, 200 µM ([8]; pH 7.4): 16.2 nm/s
Papp at 5 h, 200 µM ([8]; pH 7.8): 21.4 nm/s
Structure (SMILES): NCCNC(=O)c1ccc(Cl)cn1 [Lazabemide]
time for enzyme activity to return to baseline after drug discontinuation ([13]; MAO-B): ≤ 36 h
inhibition of brain MAO-B ([13]; at least 0.4 mg/kg every 12 h, patients with early Parkinson’s disease): > 90%

logPe [14]: smaller than −7.99
concentration reached in the brain [5]: too low to be reliably detected
Papp at 5 h, 200 µM ([8]; pH 3.7): 0.102 nm/s
Papp at 5 h, 200 µM ([8]; pH 4.7): 0.0891 nm/s
Papp at 5 h, 200 µM ([8]; pH 5.7): 0.0603 nm/s
Papp at 5 h, 200 µM ([8]; pH 6.4): 0.024 nm/s
Papp at 5 h, 200 µM ([8]; pH 7.4): 0.0676 nm/s
Papp at 5 h, 200 µM ([8]; pH 7.8): 0.0275 nm/s
Structure (SMILES): N[C@@H](Cc1ccc(O)c(O)c1)C(=O)O [L-Dopa]
percentage of viable cells remaining [2]: 79.3 ± 13.0%
viability at 24 h, 1 µM [3]: 102 ± 4.19%
viability at 24 h, 10 µM [3]: 105 ± 5.24%
viability at 24 h, 100 µM [3]: 79%
time to peak plasma levels [15]: 30 to 60 min
plasma half-life of L-dopa [16]: 0.85 to 1.62 h
half-life [17]: approximately 90 min
fraction of the administered oral dose reaching the brain unchanged ([17]; oral, estimated): less than 1%
